Source: patent US20250032567A1, “PLANT-BASED SKIN PREPARATIONS AND USE THEREOF” (priority 2022, published 2025)

These molecules were tested on cannabis calli (assay: Elicitation of callus cultures on solid medium, cannabinoid content by HPLC). Details: elicitors compared for inducing secondary metabolites.
Assay type: cell-based, Cannabis sativa

Row | SMILES | cannabinoid production (elicitor effect)
1 | O=C(O)c1ccccc1O [salicylic acid] | positive results
2 | CC/C=C\CC1C(=O)CCC1CC(=O)OC (stereo not shown) [methyl jasmonate] | positive results
3 | N[C@@H](Cc1ccccc1)C(=O)O [phenylalanine] | positive results
4 | NCCCC(=O)O [GABA] | positive results
5 | N[C@@H](Cc1ccc(O)cc1)C(=O)O [tyrosine] | positive results
6 | O=P(O)(O)CCCl [ethephon] | positive results
7 | CCCCCC(=O)O [hexanoic acid] | positive results
